The subject of the experiment is WNT pathway. Nature of the experiment: WNT pathway reporter gene assay (NIH3T3 TCF-Luc cells co-cultured with 293 WNT3a cells). Type of experiment: cell-based. The conditions noted are these: Mus musculus, concentration reducing luminescence intensity by 50%, TCF luciferase, 16 hours co-culture. The protocol:
NIH3T3 mouse fibroblast cells (American Type Culture Collection, Manassas, Va.) were transfected with a plasmid containing a luciferase gene driven by 5 copies of TCF elements. Stale cells selected with 1 μg/mL of Zeocin (Gibco/Invitrogen, Carlsbad, Calif.) are cultured in Dulbecco's modified Eagle's medium (Invitrogen, Carlsbad, Calif.) supplemented with 10% FBS (Invitrogen), 50 unit/mL penicillin and 50 μg/mL of streptomycin (Invitrogen) at 37° C. with 5% CO2 in air atmosphere.
After 16 hours, the firefly luciferase activities are measured with the Steady-Glo™ Luciferase Assay System (Promega). The cells were treated with different concentrations of compounds of this invention during the co-culture. […] To normalize for cell quantity and viability, CellTiter Glo assay is next performed in a duplicate plate.

Usually IC50 stands for the concentration that inhibits the measured activity by half.

With `Cc1cc(-c2ccc(CNc3nccc4cc(-c5ccnc(C)c5)ncc34)cc2)ccn1` [Compound 1, N-(4-(2-methylpyridin-4-yl)benzyl)-6-(2-methylpyridin-4-yl)-2,7-naphthyridin-1-amine], the 50% inhibitory concentration (IC50) is under 3 nM. To `Cc1cc(-c2cc3ccnc(NCc4ccc(-c5ccnc(C)c5)c(C)c4)c3cn2)ccn1` [Compound 2, N-(3-methyl-4-(2-methylpyridin-4-yl)benzyl)-6-(2-methylpyridin-4-yl)-2,7-naphthyridin-1-amine] belongs under 3 nM. In the case of `Cc1cc(-c2cc3ccnc(NCc4ccc(-c5ccnc(F)c5)c(F)c4)c3cn2)ccn1` [Compound 28] it was under 3 nM.

Take `Cc1cc(-c2ccc(CNc3nccc4cc(-c5cnccn5)ncc34)cc2)ccn1` [Compound 35]: the half-maximal inhibitory concentration (IC50) was under 3 nM.

`Cc1cc(-c2ncc(CNc3nccc4cc(-c5cnccn5)ccc34)cc2C)ccn1` [Compound 70] returned an IC50 of under 3 nM.

(Values after US10087181B2, “Compound as WNT signaling inhibitor, composition, and use thereof” (CUREGENIX, INC., priority 2012, dated 2018).)
